Values joined by “and” are separate entries in the source; they are usually repeats but may differ in a detail not shown here. Identical values can stand only once. Like-named read-outs stand apart in the source and are kept apart here.
Assays:
DPPH· scavenging = type: biochemical; settings: mean ± SD, n = 3
[1] = ABTS·+ decolourisation capacity; type: biochemical; settings: for ABTS scavenging rate: replicate wells, listed as T9
Outline: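 ABTS·+ working solution in 0.2 M phosphate buffer, pH 7.4, was adjusted to A729 0.8 ± 0.05, and 100 μl was mixed with 200 μl sample; absorbance was read at 729 nm after 10 min, in triplicate. Inhibition was taken relative to a phosphate-buffer control, and IC50 was obtained graphically from dose-inhibition curves.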

[2] = FRAP total antioxidant capacity; type: biochemical; settings: lower part of sheet (compound series);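 also: colourimetric FRAP kit assay read as absorbance in 96-well plates, values as mM FeSO4 via standard curve, EC1 being sample concentration matching 1.0 mmol/L FeSO4, Trolox positive control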
COX-2 = molecular target: T1, COX-2 (Homo sapiens, UniProt P35354); assay: Anti-COX-2 assay (COX-2 Inhibitor Screening Kit); type: biochemical
T1 construct: purchased Beyotime S0168
T1 sequence (P35354 18-604): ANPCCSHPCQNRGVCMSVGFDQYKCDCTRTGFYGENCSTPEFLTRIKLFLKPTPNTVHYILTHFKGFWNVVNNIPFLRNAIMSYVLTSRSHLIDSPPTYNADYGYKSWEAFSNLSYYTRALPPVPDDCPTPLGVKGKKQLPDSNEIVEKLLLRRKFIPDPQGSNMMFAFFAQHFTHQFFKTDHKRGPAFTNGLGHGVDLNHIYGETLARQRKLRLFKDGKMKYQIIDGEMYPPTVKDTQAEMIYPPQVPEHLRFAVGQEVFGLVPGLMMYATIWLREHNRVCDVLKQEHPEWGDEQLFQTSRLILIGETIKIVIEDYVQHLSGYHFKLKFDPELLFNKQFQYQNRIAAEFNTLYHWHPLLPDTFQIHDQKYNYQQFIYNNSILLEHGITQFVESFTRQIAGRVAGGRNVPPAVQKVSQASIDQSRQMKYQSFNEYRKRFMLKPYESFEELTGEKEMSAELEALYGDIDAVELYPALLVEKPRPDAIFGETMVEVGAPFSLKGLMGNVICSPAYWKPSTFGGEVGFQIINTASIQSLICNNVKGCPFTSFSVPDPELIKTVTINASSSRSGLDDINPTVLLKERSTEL

[3] = Fluorescent AGEs formation in a BSA-fructose/glucose system; type: biochemical; settings: for inhibition of fluorescent AGEs formation (BSA-抗糖化), single replicate: individual replicate; for inhibition of fluorescent AGEs formation (BSA-抗糖化), 平均 (mean): mean of 3 replicates
Outline: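 BSA glycated in vitro with D-glucose and D-fructose while test samples, dissolved in DMSO:water (1:4), were present. Percent inhibition of fluorescent AGE formation calculated from fluorescence corrected for sample-only and BSA-free blanks; triplicate.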

[4] = Online UPLC-PDA-MS-ABTS·+ scavenging (postcolumn derivatisation); settings: within DOF extract
Description: Online identification of antioxidant components of DOF extract was performed using a UPLC system (Milford, MA, USA) consisting of a Waters photodiode array detector and a Waters postcolumn derivatisation system supplying fresh ABTS solution (UPLC-PDA-QDa-ABTS). […] The detection wavelengths were set at 280 and 734 nm, and the injection volume of the sample was 10 μl.
To detect radical scavengers, the UPLC system was coupled with a Waters pump, which supplied freshly prepared ABTS·+ solution into a reaction coil (15 m, 0.25 mm ID) with a flow rate of 0.2 ml/min at 37°C. Negative peaks were recorded based on a decrease of absorbance at 729 nm after the reaction of individual compounds with the ABTS·+ radical. For preliminary identification of compounds, a Waters Acquity QDa mass detector in negative ionisation mode was connected in series to PDA with the following parameters: electrospray ion source; cone voltage, 15 V; atomiser, N2; and scanning range, 100–800 m/z.

[5] = 15.625 µM, listed as T9, 15.625 µM
[6] = 31.25 µM, listed as T9, 31.25 µM

O=c1c(OC2OC(CO)C(O)C(O)C2OC2OC(CO)C(O)C(O)C2O)c(-c2ccc(O)c(O)c2)oc2cc(O)cc(O)c12 (centres unmarked) [compound 16, Quercetin-3-O-sophoroside]
IC50 (DPPH· scavenging): 172 ± 76 µM
ABTS scavenging rate ([1]; 0.1mM (second) series, concentration 1.5625 (unit not given)): 15.90% and 14.14% and 8.19%
ABTS scavenging rate ([1]; 0.1mM (second) series, concentration 3.125 (unit not given)): 24.15% and 23.67% and 20.29%
ABTS scavenging rate ([1]; 0.1mM (second) series, concentration 6.25 (unit not given)): 44.10% and 44.05% and 40.43%
ABTS scavenging rate ([1]; 0.1mM (second) series, concentration 12.5 (unit not given)): 74.66% and 75.28% and 72.52%
ABTS scavenging rate ([1]; 0.1mM (second) series, concentration 25 (unit not given)): 99.29% and 99.51% and 99.54%
ABTS scavenging rate ([1]; 0.1mM (second) series, concentration 50 (unit not given)): 99.16% and 99.11% and 99.25%
ABTS scavenging rate ([1]; 0.1mM (second) series, concentration 100 (unit not given)): 98.65% and 98.51% (2×)
ABTS scavenging rate ([1]; 0.5mM series, concentration 7.8125 (unit not given)): 63.17% and 62.77% and 62.93%
ABTS scavenging rate ([1]; 0.5mM series, concentration 15.625 (unit not given)): 91.66% and 90.68% and 90.61%
ABTS scavenging rate ([1]; 0.5mM series, concentration 31.25 (unit not given)): 99.28% and 99.41% and 99.37%
ABTS scavenging rate ([1]; 0.5mM series, concentration 62.5 (unit not given)): 98.95% and 98.76% and 98.72%
ABTS scavenging rate ([1]; 0.5mM series, concentration 125 (unit not given)): 98.61% and 98.31% and 98.43%
ABTS scavenging rate ([1]; 0.5mM series, concentration 500 (unit not given)): 98.97% and 98.88% and 98.79%
IC50 ([1]; mean ± SD, n = 3): 6.63 ± 0.41 µM
FRAP EC1 [2]: 949.6 ± 41.9 µM
COX-2 inhibition (in words) (COX-2): great COX-2 inhibition
inhibition at 3.125 µM (COX-2; 3.125 μM, single replicates): 18.7%
COX-2 inhibition (COX-2; 3.125 μM, single replicates, listed as T9, 3.125 µM): 24.64% and 15.29%
inhibition at 6.25 µM (COX-2; 6.25 μM, single replicates): 29.8%
COX-2 inhibition (COX-2; 6.25 μM, single replicates, listed as T9, 6.25 µM): 26.80% and 27.13%
inhibition at 12.5 µM (COX-2; 12.5 μM, single replicates): 61.6%
COX-2 inhibition (COX-2; 12.5 μM, single replicates, listed as T9, 12.5 µM): 66.25% and 69.30%
inhibition at 25 µM (COX-2; 25 μM, single replicates): 73.7%
COX-2 inhibition (COX-2; 25 μM, single replicates, listed as T9, 25 µM): 76.43% and 76.52%
inhibition at 50 µM (COX-2; 50 μM, single replicates): 77.8%
COX-2 inhibition (COX-2; 50 μM, single replicates, listed as T9, 50 µM): 79.58% and 76.60%
inhibition at 100 µM (COX-2; 100 μM, single replicates): 79.3%
COX-2 inhibition (COX-2; 100 μM, single replicates, listed as T9, 100 µM): 79.42% and 83.93%
inhibition at 200 µM (COX-2; 200 μM, single replicates): 80.9%
COX-2 inhibition (COX-2; 200 μM, single replicates, listed as T9, 200 µM): 81.85% and 81.79%
IC50 (COX-2; mean ± SD, n = 3, nd, not detected, read-out: COX-2 IC50): 11 ± 0.7 µM
IC50 (COX-2; supplement sheet COX, read-out: COX-2 IC50, single replicate): 11.7 µM and 10.4 µM and 10.9 µM
inhibition of fluorescent AGEs formation (BSA-抗糖化), single replicate [3, 5]: -5.89% and 1.09% and -2.67%
inhibition of fluorescent AGEs formation (BSA-抗糖化), 平均 (mean) [3, 5]: -2.49%
inhibition of fluorescent AGEs formation (BSA-抗糖化), single replicate [3, 6]: 4.38% and 4.16% and -1.45%
inhibition of fluorescent AGEs formation (BSA-抗糖化), 平均 (mean) [3, 6]: 2.37%
inhibition of fluorescent AGEs formation (BSA-抗糖化), single replicate ([3]; 62.5 µM, listed as T9, 62.5 µM): 13.91% and 12.77% and 15.77%
inhibition of fluorescent AGEs formation (BSA-抗糖化), 平均 (mean) ([3]; 62.5 µM, listed as T9, 62.5 µM): 14.15%
inhibition of fluorescent AGEs formation (BSA-抗糖化), single replicate ([3]; 125 µM, listed as T9, 125 µM): 29.89% and 32.42% and 28.07%
inhibition of fluorescent AGEs formation (BSA-抗糖化), 平均 (mean) ([3]; 125 µM, listed as T9, 125 µM): 30.13%
inhibition of fluorescent AGEs formation (BSA-抗糖化), single replicate ([3]; 250 µM, listed as T9, 250 µM): 44.67% and 46.80% and 48.36%
inhibition of fluorescent AGEs formation (BSA-抗糖化), 平均 (mean) ([3]; 250 µM, listed as T9, 250 µM): 46.61%
inhibition of fluorescent AGEs formation (BSA-抗糖化), single replicate ([3]; 500 µM, listed as T9, 500 µM): 63.53% and 64.37% and 63.12%
inhibition of fluorescent AGEs formation (BSA-抗糖化), 平均 (mean) ([3]; 500 µM, listed as T9, 500 µM): 63.67%
inhibition of fluorescent AGEs formation (BSA-抗糖化), single replicate ([3]; 1000 µM, listed as T9, 1000 µM): 79.44% and 79.91% and 79.18%
inhibition of fluorescent AGEs formation (BSA-抗糖化), 平均 (mean) ([3]; 1000 µM, listed as T9, 1000 µM): 79.51%
inhibition of fluorescent AGEs formation (BSA-抗糖化), single replicate ([3]; 2000 µM, listed as T9, 2000 µM): 88.85% and 89.28% and 89.06%
inhibition of fluorescent AGEs formation (BSA-抗糖化), 平均 (mean) ([3]; 2000 µM, listed as T9, 2000 µM): 89.06%
inhibition of fluorescent AGEs formation (BSA-抗糖化), single replicate ([3]; 4000 µM (series head 'T9 4000µM', 2-fold dilutions), listed as T9): 94.75% and 94.42% and 94.91%
inhibition of fluorescent AGEs formation (BSA-抗糖化), 平均 (mean) ([3]; 4000 µM, listed as T9, 4000 µM): 94.69%
IC50 ([3]; mean ± SD, n = 3, read-out: BSA-glycation IC50): 296 ± 8.5 µM
online ABTS radical scavenging (size of negative peaks at 734 nm) [4]: strongest ABTS radical scavengers
